Reference: paper PMC12314110, “Evaluation of Potential Effects of CYP3A Inhibition and CYP3A Induction on the Pharmacokinetics of Fruquintinib in Healthy Subjects” (Clinical Pharmacology in Drug Development, 2025)

How the values were obtained:
[1] = Part A: PK of single-dose fruquintinib alone and with itraconazole (CYP3A inhibition); format: in vivo, human; conditions: for MPR AUC0‐inf (metabolite‐to‐parent ratio) / MPR AUC0‐t (metabolite‐to‐parent ratio) / MPR Cmax (metabolite‐to‐parent ratio): M11 to fruquintinib; for MPR AUC0‐inf (metabolite‐to‐parent ratio) / MPR AUC0‐t (metabolite‐to‐parent ratio) / MPR Cmax (metabolite‐to‐parent ratio) / Cmax / Tmax / half-life / AUC: Part A; for MPR AUC0‐inf (metabolite‐to‐parent ratio) / MPR AUC0‐t (metabolite‐to‐parent ratio) / MPR Cmax (metabolite‐to‐parent ratio) / Cmax / half-life / AUC: arithmetic mean (SD); for Cmax / Tmax / half-life / AUC: both sexes, human, oral, metabolite M11 in plasma; for Cmax: read-out: Cmax; for Tmax: median (minimum‐maximum); for half-life / AUC: plasma
Description: (§1) This was a single‐center, open‐label, 2‐part (Part A and Part B), 2‐period, fixed‐sequence study conducted in healthy male and female subjects. Parts A and B evaluated the effect of the CYP3A inhibitor itraconazole and the CYP3A inducer rifampin on the PK profile of fruquintinib, respectively. Each part consisted of a screening phase, a treatment phase (Period 1 and Period 2), and an end‐of‐study (EOS) phase. Screening occurred within 21 days before the first study drug administration. There was at least a 14‐day washout of fruquintinib between treatment periods. PK samples were collected before dosing and over 168 hours following the fruquintinib dose in Part A (with itraconazole) and Part B (with rifampin). Part A and Part B were enrolled independently.
In Part A, subjects were administered fruquintinib alone in Treatment Period 1 and in combination with itraconazole in Treatment Period 2. Study Day 1 was considered the start of Treatment Period 1, and Study Day 15 was considered the start of Treatment Period 2. On Study Day 1, subjects received a single dose of fruquintinib 5 mg by mouth under fasted conditions (subjects fasted for at least 10 hours before fruquintinib dosing and 4 hours after), and on Study Day 19 subjects received a second single dose of fruquintinib 5 mg by mouth under fasted conditions, alongside itraconazole. On Study Day 15, subjects began a regimen of itraconazole 200 mg by mouth twice a day, followed by once daily dosing on Study Days 16‐25. A dose of 200 mg was selected, with a loading dose as part of a 5‐day lead‐in (twice daily for 1 day, once daily for 4 days) to achieve appropriate inhibition of CYP3A before dosing with fruquintinib.[10] Once‐daily dosing of itraconazole for an additional 5 days throughout the fruquintinib PK sampling period was continued to maintain CYP3A inhibition.[11]
As itraconazole oral bioavailability is maximal when the capsules are taken immediately after a full meal,[12] it was administered under fed conditions except when coadministered with fruquintinib on Study Day 19. Itraconazole doses were administered 30 minutes after the start of breakfast on Study Days 15‐18 and Study Days 20‐25. On Study Day 19, subjects received both treatments under fasted conditions, and itraconazole was administered 1 hour before administration of a single dose of fruquintinib 5 mg by mouth. Subjects were discharged after completion of EOS procedures on Study Day 26 or at early withdrawal.
(§2) Blood samples for determination of fruquintinib and metabolite M11 plasma concentrations were collected before dosing and at 0.5, 1, 1.5, 2, 3, 4, 6, 8, 12, 24, 36, 48, 72, 96, 120, 144, and 168 hours after fruquintinib dosing. Plasma samples were analyzed by LabCorp Bioanalytical (Indianapolis, IN) using a validated liquid chromatography with tandem mass spectrometry assay method with an analytical range of 1.00 ng/mL (lower limit of quantitation) to 750 ng/mL (upper limit of quantitation) for both fruquintinib and M11.[6] Interrun variability was 6.3% or less and 13.8% or less for fruquintinib and M11, respectively. Quality control samples at 4 concentrations (3, 30, 300, and 600 ng/mL) were assayed along with study samples, and the bias quality control sample concentrations deviated by ±2.0% and ±2.7% from the nominal concentrations for fruquintinib and M11, respectively.
PK parameters were determined by noncompartmental analysis and included maximum plasma concentration (Cmax); time to reach Cmax (tmax); area under the plasma concentration‐time curve (AUC) from time 0 to the time of the last measurable concentration (AUC0‐t); AUC from time 0 to infinity (AUC0‐inf); half‐life (t1/2); and the metabolite‐to‐parent ratios for Cmax, AUC0‐t, and AUC0‐inf. Apparent oral clearance and volume of distribution were also estimated for fruquintinib. […]

[2] = parameters: method as in PMID 28730290; conditions: mass balance study, major circulating metabolite; cited from earlier work
[3] = Part B: PK of single-dose fruquintinib alone and with rifampin (CYP3A induction); format: in vivo, human; conditions: for MPR AUC0‐inf (metabolite‐to‐parent ratio) / MPR AUC0‐t (metabolite‐to‐parent ratio) / MPR Cmax (metabolite‐to‐parent ratio): M11 to fruquintinib; for MPR AUC0‐inf (metabolite‐to‐parent ratio) / MPR AUC0‐t (metabolite‐to‐parent ratio) / MPR Cmax (metabolite‐to‐parent ratio) / Cmax / half-life / AUC / Tmax: Part B; for MPR AUC0‐inf (metabolite‐to‐parent ratio) / MPR AUC0‐t (metabolite‐to‐parent ratio) / MPR Cmax (metabolite‐to‐parent ratio) / Cmax / half-life / AUC: arithmetic mean (SD); for Cmax / half-life / AUC / Tmax: metabolite M11 in plasma; for Cmax: read-out: Cmax; for Tmax: median (minimum‐maximum)
Description: as §1
In Part B, subjects were administered fruquintinib alone in Treatment Period 1 and in combination with rifampin in Treatment Period 2. Study Day 1 was considered as the start of Treatment Period 1, and Study Day 8 was considered as the start of Treatment Period 2. On Study Day 1, a single dose of fruquintinib 5 mg by mouth was administered under fasted conditions, and on Study Day 15, a single dose of fruquintinib 5 mg was administered by mouth under fasted conditions alongside rifampin. Starting on Study Day 8, rifampin 600 mg was dosed by mouth once daily for 14 consecutive days, 7 days before fruquintinib dosing and 6 days after fruquintinib dosing, to ensure that induction was maintained throughout the PK sampling period. Subjects therefore received rifampin from Study Day 8 to Study Day 21. Absorption of rifampin is reduced by approximately 30% when the drug is ingested with food.[13] Therefore, rifampin was administered at least 1 hour before breakfast when given alone and under fasted conditions when administered with fruquintinib. Breakfast was given at least 1 hour after the rifampin doses on Study Days 8‐14 and Study Days 16‐21. On Study Day 15, subjects received both treatments under fasted conditions, and rifampin was administered 1hour before administration of a single dose of fruquintinib 5 mg by mouth. Subjects were discharged after completion of EOS procedures on Study Day 22 or at early withdrawal.
as §2
PK parameters were determined by noncompartmental analysis and included maximum plasma concentration (Cmax); time to reach Cmax (tmax); area under the plasma concentration‐time curve (AUC) from time 0 to the time of the last measurable concentration (AUC0‐t); AUC from time 0 to infinity (AUC0‐inf); half‐life (t1/2); and the metabolite‐to‐parent ratios for Cmax, AUC0‐t, and AUC0‐inf. Apparent oral clearance and volume of distribution were also estimated for fruquintinib.
For Part A, the effect of itraconazole based on the PK parameters of fruquintinib was evaluated using a linear mixed‐effect model with treatment (ie, fruquintinib with itraconazole [test] and fruquintinib alone [reference]) as fixed effects and subject as a random effect. A similar inferential analysis was performed for Part B, but fruquintinib with rifampin was the test group. […]

[4] = fruquintinib 5 mg + itraconazole 200 mg, n = 13
[5] = fruquintinib 5 mg + itraconazole 200 mg, n = 14
[6] = fruquintinib alone 5 mg, n = 14
[7] = coadministration of itraconazole
[8] = fruquintinib 5 mg + rifampin 600 mg, n = 13
[9] = fruquintinib alone 5 mg, n = 13

MPR AUC0‐inf (metabolite‐to‐parent ratio) [1, 4]: 0.177 (0.0371)
MPR AUC0‐t (metabolite‐to‐parent ratio) [1, 5]: 0.141 (0.0301)
MPR Cmax (metabolite‐to‐parent ratio) [1, 5]: 0.0579 (0.0155)
MPR AUC0‐inf (metabolite‐to‐parent ratio) ([1]; fruquintinib alone 5 mg, n = 12): 0.336 (0.0766)
MPR AUC0‐t (metabolite‐to‐parent ratio) [1, 6]: 0.291 (0.0745)
MPR Cmax (metabolite‐to‐parent ratio) [1, 6]: 0.121 (0.0358)
Cmax [1, 5]: 6.7 ng/mL
Tmax [1, 5]: 47.9 h
Cmax [1, 6]: 15.2 ng/mL
Tmax [1, 6]: 72 h
half-life ([1]; 5 mg, fruquintinib alone 5 mg, n = 12): 58.6 h
AUC ([1]; 5 mg, fruquintinib alone 5 mg, n = 12, read-out: AUC0‐inf): 2000 ng·h/mL
AUC ([1]; 5 mg, fruquintinib alone 5 mg, n = 14, read-out: AUC0‐t): 1580 ng·h/mL
half-life [1, 4]: 70.5 h
AUC ([1]; fruquintinib 5 mg + itraconazole 200 mg, n = 13, read-out: AUC0‐inf): 1100 ng·h/mL
AUC ([1]; fruquintinib 5 mg + itraconazole 200 mg, n = 14, read-out: AUC0‐t): 816 ng·h/mL
decrease of M11 AUC0‐inf [1, 7]: 44%
decrease of M11 AUC0‐t [1, 7]: 48%
decrease of M11 Cmax [1, 7]: 55%
MPR AUC0‐inf (metabolite‐to‐parent ratio) [3, 8]: 1.13 (0.269)
MPR AUC0‐t (metabolite‐to‐parent ratio) [3, 8]: 1.12 (0.266)
MPR Cmax (metabolite‐to‐parent ratio) [3, 8]: 0.312 (0.0975)
MPR AUC0‐inf (metabolite‐to‐parent ratio) [3, 9]: 0.379 (0.0944)
MPR AUC0‐t (metabolite‐to‐parent ratio) [3, 9]: 0.295 (0.0848)
MPR Cmax (metabolite‐to‐parent ratio) [3, 6]: 0.117 (0.0462)
Cmax ([3]; both sexes, human, oral, fruquintinib 5 mg + rifampin 600 mg, n = 13): 31.1 ng/mL
Cmax ([3]; both sexes, human, oral, fruquintinib alone 5 mg, n = 14): 13.7 ng/mL
half-life ([3]; both sexes, human, plasma, oral, 5 mg, fruquintinib alone 5 mg, n = 13): 71.8 h
AUC ([3]; both sexes, human, plasma, oral, 5 mg, fruquintinib alone 5 mg, n = 13, read-out: AUC0‐inf): 2160 ng·h/mL
AUC ([3]; both sexes, human, plasma, oral, 5 mg, fruquintinib alone 5 mg, n = 13, read-out: AUC0‐t): 1610 ng·h/mL
Tmax ([3]; both sexes, human, plasma, oral, 5 mg, fruquintinib alone 5 mg, n = 14, read-out: tmax): 48 h
half-life ([3]; both sexes, human, plasma, oral, fruquintinib 5 mg + rifampin 600 mg, n = 13): 25.1 h
AUC ([3]; both sexes, human, plasma, oral, fruquintinib 5 mg + rifampin 600 mg, n = 13, read-out: AUC0‐inf): 2200 ng·h/mL
AUC ([3]; both sexes, human, plasma, oral, fruquintinib 5 mg + rifampin 600 mg, n = 13, read-out: AUC0‐t): 2130 ng·h/mL
Tmax ([3]; both sexes, human, plasma, oral, fruquintinib 5 mg + rifampin 600 mg, n = 13, read-out: tmax): 23 h
increase of M11 Cmax ([3]; coadministration of fruquintinib with rifampin versus fruquintinib alone): 2.3 fold
Tmax [3, 8]: 22.9 (22.9–46.9) hour
Structure (SMILES): COc1cc2ncnc(Oc3ccc4c(C(N)=O)c(C)oc4c3)c2cc1OC [M11]
share of total radioactivity exposure in plasma [2]: approximately 17%
